For eight molecules, activity, inhibition and IC50 results are on record in US6225478A, “Iridoid derivatives and neovascularization inhibitors containing the same as active ingredient” (Tsumura & Co., priority 1999, dated 2001).

Format in all cases: cell-based
Experiment [1] relates to human umbilical-vein endothelial cells (HUVEC). Description: Cell Migration Assay (CMA) Test, HUVEC (% relative to control). The following applies: Homo sapiens, HUVEC, 24 hours, 60% or less = remarkable inhibition, read-out: CMA (% relative to control); for activity at 1 µg/mL: 1 μg/ml; for activity at 10 µg/mL: 10 μg/ml. The gist of the method:
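Confluent 7th-subculture HUVEC monolayers scraped with razor blade, then given M199 (2+) plus 40 or 4 μl of 1 mg/ml sample (in 5% DMSO-PBS) per 4.0 ml medium for 24 h at 37 °C. Methanol-fixed, Giemsa-stained; newly migrated cells counted microscopically in 1 mm×1 mm blocks, expressed versus M199 (2+) control.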

For experiment [2] the test system is unchanged. Description: Tube Formation Assay (TFA) Test, HUVEC in collagen gel. As to conditions: Homo sapiens, HUVEC, 20 h, 20 hours, 40% or less judged remarkable, read-out: TFA (inhibition rate, %); for inhibition at 1 µg/mL: 1 μg/ml; for inhibition at 10 µg/mL: 10 μg/ml. The gist of the method: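 Inhibition rate (%) of tube formation is computed from tube lengths against control (+) and control (-), measured after 20 h at 37 °C in M-199 with 20% FCS, 30 ng/ml b-FGF and 0.1 μM PMA. Samples were applied to HUVEC on collagen and covered by a second collagen layer (double-layer gel).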

The test system is the same in experiment [3]. Description: Cell Proliferation Assay (CPA) Test, HUVEC, MTT. As to conditions: Homo sapiens, M199 (2+) medium, read-out: CPA (IC50 μg/ml). The gist of the method:
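HUVEC (7th subculture) seeded at 5×10^4 cells/ml in M-199 with 20% FCS, 10 ng/ml b-FGF and 10 ng/ml EGF, grown 24 h at 37 °C, 5% CO2. Compounds added from 1 mg/ml or 0.1 mg/ml samples in 5% DMSO-PBS(−), renewed with medium after 24 h, then cultured 48 h more. Read-out by MTT with 4 h incubation and SDS/HCl stop.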

Usually inhibition stands for the change of the read-out against control, counted positive when it falls.

Values after ≈ are worked out from the molar mass of the structure shown.

`CNC(=O)O[C@@H]1OC=C(C(=O)OC)[C@H]2C[C@@H]3O[C@]3(C)[C@H]12` [compound 3, (1S,4aS,6S,7R,7aR)-6,7-epoxy-1,4a,5,6,7,7a-hexahydro-1-methylcarbamoyloxy-7-methylcyclopenta [c] pyrane-4-carboxylic acid methylester]: in experiment [1], the activity at 1 µg/mL was determined as 68.5% and the activity at 10 µg/mL came out at 57.3%. For the same molecule, in experiment [2], the inhibition at 1 µg/mL worked out at 33% and the inhibition at 10 µg/mL amounted to 33.5%. For the same molecule, the IC50 in experiment [3] was above 100 µg/mL.

Regarding `C=CCOC(=O)C1=CO[C@@H](OC(=O)NC)[C@@H]2[C@@H]1C[C@@H]1O[C@]21C` [compound 9, (1S,4aS,6S,7R,7aR)-6,7-epoxy-1,4a,5,6,7,7a-hexahydro-7-methyl-1-(methylcarbamoyloxy) cyclopenta [c]-pyrane-4-carboxylic acid allylester], in experiment [1], the activity at 1 µg/mL amounted to 111% and the activity at 10 µg/mL was 116%. In experiment [2], the inhibition at 1 µg/mL turned out to be 11% and the inhibition at 10 µg/mL stood at 16.5%. The IC50 in experiment [3] was above 100 µg/mL.

For the molecule `CNC(=O)O[C@@H]1OC=C(C(=O)Oc2ccccc2)[C@H]2C[C@@H]3O[C@]3(C)[C@H]12` [compound 13, (1S,4aS,6S,7R,7aR)-6,7-epoxy-1,4a,5,6,7,7a-hexahydro-7-methyl-1-(methylcarbamoyloxy) cyclopenta [c]-pyrane-4-carboxylic acid phenylester], in experiment [1], the activity at 1 µg/mL came out at 94.1% and the activity at 10 µg/mL was 94%. In experiment [2], the inhibition at 1 µg/mL was 36.3% and the inhibition at 10 µg/mL is 36.8%. Moreover, the IC50 in experiment [3] turned out to be 53.3 µg/mL (≈ 154 µM).

As for `COC(=O)C1=CO[C@@H](OC(N)=O)[C@@H]2[C@@H]1C[C@@H]1O[C@]21C` [compound 29, (1S,4aS,6S,7R,7aR)-1-(carbamoyloxy)-6,7-epoxy-1,4a,5,6,7,7a-hexahydro-7-methylcyclopenta [c] pyrane-4-carboxylic acid methylester], in experiment [1], the activity at 1 µg/mL is 89.9% and the activity at 10 µg/mL turned out to be 88%. In experiment [2], the inhibition at 1 µg/mL came out at 17.7% and the inhibition at 10 µg/mL stood at 29.3%. Also, in experiment [3], the IC50 was above 100 µg/mL.

For the molecule `COC(=O)C1=CO[C@@H](OC(=O)Nc2ccccc2)[C@@H]2[C@@H]1C[C@@H]1O[C@]21C` [compound 35, (1S,4aS,6S,7R,7aR)-6,7-epoxy-1,4a,5,6,7,7a-hexahydro-7-methyl-1-(phenylcarbamoyloxy) cyclopenta [c] pyrane-4-carboxylic acid methylester], in experiment [1], the activity at 1 µg/mL amounted to 84.4% and the activity at 10 µg/mL came to 67.2%. Also, in experiment [2], the inhibition at 1 µg/mL is -3.3% and the inhibition at 10 µg/mL is 20%. In addition, the IC50 in experiment [3] was above 100 µg/mL.

In the case of `COC(=O)C1=CO[C@@H](OC(=O)NC(C)C)[C@@H]2[C@@H]1C[C@@H]1O[C@]21C` [compound 34, (1S,4aS,6S,7R,7aR)-6,7-epoxy-1,4a,5,6,7,7a-hexahydro-1-(isopropylcarbamoyloxy)-7-methylcyclopenta [c] pyrane-4-carboxylic acid methylester], in experiment [1], the activity at 1 µg/mL was determined as 98.2% and the activity at 10 µg/mL came to 95.2%. For the same molecule, in experiment [2], the inhibition at 1 µg/mL stood at 16.8% and the inhibition at 10 µg/mL is -14.1%. The IC50 in experiment [3] was above 100 µg/mL.

For `COC(=O)C1=CO[C@H](OC(=O)NC(=O)CCl)[C@@H]2[C@@H]1C[C@@H]1O[C@]21C` [compound 40, (1R,4aS,6S,7R,7aR)-1-(chloroacetylcarbamoyloxy)-6,7-epoxy-1,4a,5,6,7,7a-hexahydro-7-methylcyclopenta [c] pyrane-4-carboxylic acid methylester], in experiment [1], the activity at 1 µg/mL amounted to 77.3% and the activity at 10 µg/mL amounted to 66.8%. For the same molecule, in experiment [2], the inhibition at 1 µg/mL is 32.8% and the inhibition at 10 µg/mL came out at 23.8%. The IC50 in experiment [3] stood at 58.1 µg/mL (≈ 168 µM).

Regarding `CNC(=O)OC1OC=C(C(=O)N2CCCCC2)C2CC3OC3(C)C12` [compound 26, (1S,4aS,6S,7R,7aR)-6,7-epoxy-1,4a,5,6,7,7a-hexahydro-7-methyl-1-(methylcarbamoyloxy) cyclopenta [c]-pyrane-4-carboxylic acid piperidylamide], in experiment [1], the activity at 1 µg/mL came to 84% and the activity at 10 µg/mL amounted to 104%. Besides, in experiment [2], the inhibition at 1 µg/mL worked out at 41.2% and the inhibition at 10 µg/mL was 30.8%. Besides, the IC50 in experiment [3] was above 100 µg/mL.
